Reference: ChEMBL document CHEMBL1139913, “Synthesis, biological evaluations, and tubulin binding poses of C-2alpha sulfur linked taxol analogues” (Bioorg Med Chem Lett, 2007)

How the values were obtained:
A2780 = test: Cytotoxicity against A2780 cells by MTT assay; format: functional, cell-based; conditions: Homo sapiens
[1] = Cytotoxicity against A2780/AD cells by MTT assay; format: functional, cell-based; conditions: Homo sapiens, A2780 ADR

Structure (SMILES) | IC50 (A2780) [µM] | IC50 [1] [µM]
CC(=O)O[C@H]1C(=O)[C@@]2(C)[C@H]([C@H](SC(=O)c3ccccc3)[C@]3(O)C[C@H](OC(=O)[C@H](O)[C@@H](NC(=O)OC(C)(C)C)c4ccccc4)C(C)=C1C3(C)C)[C@]1(OC(C)=O)CO[C@@H]1C[C@@H]2O | 2.4 | 6.96
CC(=O)O[C@H]1C(=O)[C@@]2(C)[C@H]([C@H](OC(=O)c3ccccc3)[C@]3(O)C[C@H](OC(=O)[C@H](O)[C@@H](NC(=O)c4ccccc4)c4ccccc4)C(C)=C1C3(C)C)[C@]1(OC(C)=O)CO[C@@H]1C[C@@H]2O [PACLITAXEL] | 0.0016 | 0.92
CC(=O)O[C@H]1C(=O)[C@@]2(C)[C@H]([C@H](SC(=O)c3ccccc3)[C@]3(O)C[C@H](OC(=O)[C@H](O)[C@@H](NC(=O)c4ccccc4)c4ccccc4)C(C)=C1C3(C)C)[C@]1(OC(C)=O)CO[C@@H]1C[C@@H]2O | 11.7 | 27
CC(=O)O[C@H]1C(=O)[C@@]2(C)[C@H]([C@H](SCc3ccccc3)[C@]3(O)C[C@H](OC(=O)[C@H](O)[C@@H](NC(=O)c4ccccc4)c4ccccc4)C(C)=C1C3(C)C)[C@]1(OC(C)=O)CO[C@@H]1C[C@@H]2O | 9.9 | 9.4
CC(=O)O[C@H]1C(=O)[C@@]2(C)[C@H]([C@H](SCc3ccccc3)[C@]3(O)C[C@H](OC(=O)[C@H](O)[C@@H](NC(=O)OC(C)(C)C)c4ccccc4)C(C)=C1C3(C)C)[C@]1(OC(C)=O)CO[C@@H]1C[C@@H]2O | 3.5 | 8.3
